Test system: Prostate cancer cells 22RV1
Assay: Experiment on inhibiting 22RV1 cell proliferation (CellTiter-Glo, 7 days)
Assay type: cell-based
Details: Homo sapiens, 168 h, 22RV1 cells, 7 days incubation, cells with nM printed beside the value, read-out: IC50 values for inhibition of 22RVI cells
Method: Prostate cancer cells 22RV1 were purchased from ATCC, the cell medium was RPMI 1640+10% FBS, and the cells were cultured in an incubator at 37° C. under 5% CO2. On day 1, the cells in the exponential growth phase were collected. With a 1% css-FBS phenol red-free medium, the cell suspension was adjusted to a corresponding concentration, plated at 2000 cells/well and incubated overnight. On day 2, compounds at different concentrations were added, and the plate was placed in the incubator and incubated for further 7 days. After the incubation was completed, according to operation instructions for a CellTiter-Glo kit (Promega, G7573), 50 μL of CellTiter-Glo reagents, which were already pre-melted and equilibrated to room temperature, were added to each well, and the mixtures were uniformly mixed for 2 min using a microplate shaker. The plate was placed at room temperature for 10 min. and then […] signal values were measured using a microplate reader (PHERAstar FSX). The results were processed according to formula (I), the inhibition rate of the compound at different concentrations was calculated, and the IC50 value of the compound with an inhibition rate of 50% was calculated using origin9.2 software with DoseResp function, wherein RLUcompound was the readout of the treated group, and RLUcontrol was the average value of the DMSO vehicle control group.

Row | IC50 [nM] | Structure (SMILES)
1 | < 50 | Cc1nn(C2(C(=O)Nc3ccc(C(F)(F)F)cc3Cl)CCC2)c(C)c1C#CC1CN(c2ccc3c(c2)C(=O)N(C2CCC(=O)NC2=O)C3=O)C1 (stereo not drawn) [Compound 166, N-(2-chloro-4-(trifluoromethyl)phenyl)-1-(4-((1-(2-(2,6-dioxopiperidin-3-yl)-1,3-dioxoisoindolin-5-yl)azetidin-3-yl)ethynyl)-3,5-dimethyl-1H-pyrazol-1-yl)cyclobutane-1-carboxamide]
2 | < 50 | C=CCc1cc(C(F)(F)F)ccc1NC(=O)C(C)(C)n1cc(C#CC2CN(c3ccc4c(c3)C(=O)N(C3CCC(=O)NC3=O)C4=O)C2)cn1 (stereo not drawn) [Compound 169, N-(2-allyl-4-(trifluoromethyl)phenyl)-2-(4-((1-(2-(2,6-dioxopiperidin-3-yl)-1,3-dioxoisoindolin-5-yl)azetidin-3-yl)ethynyl)-1H-pyrazol-1-yl)-2-methylpropanamide]
3 | < 50 | CC(C)(C(=O)Nc1ccc(C#N)cc1-n1cccn1)n1cc(C#CC2CN(c3ccc4c(c3)C(=O)N(C3CCC(=O)NC3=O)C4=O)C2)cn1 (stereo not drawn) [Compound 172, N-(4-cyano-2-(1H-pyrazol-1-yl)phenyl)-2-(4-((1-(2-(2,6-dioxopiperidin-3-yl)-1,3-dioxoisoindolin-5-yl)azetidin-3-yl)ethynyl)-1H-pyrazol-1-yl)-2-methylpropanamide]
4 | < 100 | [2H]C([2H])([2H])C(C(=O)Nc1ccc(C(F)(F)F)cc1C#CC)(n1cc(C#CC2CN(c3ccc4c(c3)C(=O)N(C3CCC(=O)NC3=O)C4=O)C2)cn1)C([2H])([2H])[2H] (stereo not drawn) [Compound 175, 2-(4-((1-(2-(2,6-dioxopiperidin-3-yl)-1,3-dioxoisoindolin-5-yl)azetidin-3-yl)ethynyl)-1H-pyrazol-1-yl)-2-(methyl-d3)—N-(2-(prop-1-yn-1-yl)-4-(trifluoromethyl)phenyl) propanamide-d3]
5 | < 50 | Cn1c(C(F)(F)F)ccc(NC(=O)C(C)(C)n2cc(C#CC3CN(c4ccc5c(c4)C(=O)N(C4CCC(=O)NC4=O)C5=O)C3)cn2)c1=O (stereo not drawn) [Compound 178]
6 | < 50 | CN(C)c1ccc(NC(=O)C2(n3cc(C#CC4CN(c5ccc6c(c5)C(=O)N(C5CCC(=O)NC5=O)C6=O)C4)cn3)CCC2)c(Cl)c1 (stereo not drawn) [Compound 181, N-(2-chloro-4-(dimethylamino)phenyl)-1-(4-(2-(1-(2-(2,6-dioxopiperidin-3-yl)-1,3-dioxo-2,3-dihydro-1H-isoindol-5-yl)azetidin-3-yl)ethynyl)-1H-pyrazol-1-yl)cyclobutane-1-carboxamide]
7 | < 100 | CN(C)c1cc(C(F)(F)F)ccc1NC(=O)C(C)(C)n1cc(C#CC2CN(c3ccc4c(c3)C(=O)N(C3CCC(=O)NC3=O)C4=O)C2)cn1 (stereo not drawn) [Compound 182, N-(2-(dimethylamino)-4-(trifluoromethyl)phenyl)-2-(4-((1-(2-(2,6-dioxopiperidin-3-yl)-1,3-dioxoisoindolin-5-yl)azetidin-3-yl)ethynyl)-1H-pyrazol-1-yl)-2-methylpropanamide]
8 | < 100 | Cc1nn(C(C)(C)C(=O)Nc2ccc(C#N)cc2C2CC2)cc1C#CC1CN(c2ccc3c(c2)C(=O)N(C2CCC(=O)NC2=O)C3=O)C1 (stereo not drawn) [Compound 184, N-(4-cyano-2-cyclopropylphenyl)-2-(4-((1-(2-(2,6-dioxopiperidin-3-yl)-1,3-dioxoisoindolin-5-yl)azetidin-3-yl)ethynyl)-3-methyl-1H-pyrazol-1-yl)-2-methylpropanamide]
9 | < 100 | [2H]C([2H])([2H])C(C(=O)Nc1ccc(C#N)cc1C1CC1)(n1cc(C#CC2CN(c3ccc4c(c3)C(=O)N(C3CCC(=O)NC3=O)C4=O)C2)cn1)C([2H])([2H])[2H] (stereo not drawn) [Compound 186, N-(4-cyano-2-cyclopropylphenyl)-2-(4-((1-(2-(2,6-dioxopiperidin-3-yl)-1,3-dioxoisoindolin-S-yl)azetidin-3-yl)ethynyl)-1H-pyrazol-1-yl)-2,2-(dimethyl-d6) acetamide]
